This data set deals with cultured adult rat retinal ganglion cells (RGCs). Put plainly: Glutamate-induced toxicity in cultured adult rat retinal ganglion cells (RGC survival, Thy-1-positive cell count). As to conditions: Compound at 1 μM, 30 min pre-treatment, then 100 μM glutamate for 3 days; Thy-1-positive healthy cells counted; 70% of RGCs survived with glutamate alone. The data set is classed as cell-based. As for the experimental part: Adult Sprague-Dawley rats were euthanized by CO2 asphyxiation. Their eyes were enucleated and the retinas isolated. Retinal cells were treated with of papain solution for 25 min at 37° C., then washed 3 times with 5 mL RGC culture medium (Neurobasal medium with various nutrient supplements+1% fetal calf serum). Retinal cells were dispersed by trituration. Cell suspension was placed onto poly-D-lysine- and laminin-coated 8-well chambered culture slides. The cells were then cultured in 95% air/5% CO2 at 37° C.
For glutamate-induced toxicity studies, cells were pre-treated with vehicle or the indicated compounds for 30 minutes, followed by 100 μM glutamate for 3 days. At the end of the incubation period, the cells were fixed and labeled for Thy-1, a RGC marker, by immunocytochemistry. Cell survival was quantified by manually counting Thy-1-positive healthy cells in each well.

The structures appear in SMILES notation.

For the compound `COC(=O)CNC(=O)c1ncccc1O` [Compound 1], the “protection against glutamate-induced cytotoxicity (RGC survival)” value is given as “protective against this insult”.

(Values after patent publication US7625927B2, “Method of treating glaucoma” (Alcon Research, Ltd., priority 2006, dated 2009).)
